Laboratory results as given in patent US8952024B2, “Herbicidal pyrimidone derivatives” (E I du Pont de Nemours and Company, priority 2009, dated 2015).
Like-named read-outs stand apart in the source and are kept apart here.

Columns and labels:
Type in all cases: in vivo
[1] = tested on: barnyardgrass (Echinochloa crus-galli); assay: Test A pre-/postemergence plant response; conditions: Echinochloa crus-galli, 240 h, read-out: Plant response rating, Barnyardgrass; for pest or weed control at 125 g/ha: 125 g ai/ha; for pest or weed control at 500 g/ha: 500 g ai/ha, approx. ten days
How it was run: (§1)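 Visual injury rating on a 0–100 scale (0 = no effect, 100 = complete control) was made versus untreated controls after about ten days in the greenhouse. Compounds, formulated in a non-phytotoxic solvent mix containing surfactant, were sprayed preemergence onto loam/sand soil and postemergence onto one- to two-leaf plants.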

[2] = tested on: velvetleaf (Abutilon theophrasti); assay: Test A pre-/postemergence plant response; conditions: Abutilon theophrasti, 240 h, read-out: Plant response rating, Velvetleaf; for pest or weed control at 125 g/ha: 125 g ai/ha; for pest or weed control at 500 g/ha: 500 g ai/ha, approx. ten days
How it was run: as §1

[3] = tested on: giant foxtail (Setaria faberii); assay: Test A pre-/postemergence plant response; conditions: Setaria faberi, 240 h, read-out: Plant response rating, Foxtail, Giant; for pest or weed control at 125 g/ha: 125 g ai/ha; for pest or weed control at 500 g/ha: 500 g ai/ha, approx. ten days
How it was run: as §1

[4] = tested on: large crabgrass (Digitaria sanguinalis); assay: Test A pre-/postemergence plant response; conditions: Digitaria sanguinalis, 240 h, read-out: Plant response rating, Crabgrass, Large; for pest or weed control at 125 g/ha: 125 g ai/ha; for pest or weed control at 500 g/ha: 500 g ai/ha, approx. ten days
How it was run: as §1

[5] = tested on: wheat (Triticum aestivum); assay: Test A pre-/postemergence plant response; conditions: Triticum aestivum, 240 h, read-out: Plant response rating, Wheat; for plant injury at 125 g/ha: 125 g ai/ha; for plant injury at 500 g/ha: 500 g ai/ha, approx. ten days
How it was run: as §1

corn (Zea mays) = assay: Test A pre-/postemergence plant response; conditions: Zea mays, 240 h; for Corn plant response rating (crop injury, 0 = no effect, 100 = complete kill) at 125 g/ha: 125 g ai/ha; for Corn plant response rating (crop injury, 0 = no effect, 100 = complete kill) at 500 g/ha: 500 g ai/ha, approx. ten days
How it was run: as §1

[6] = tested on: morningglory (Ipomoea spp.); assay: Test A pre-/postemergence plant response; conditions: Ipomoea, 240 h, read-out: Plant response rating, Morningglory; for pest or weed control at 125 g/ha: 125 g ai/ha; for pest or weed control at 500 g/ha: 500 g ai/ha, approx. ten days
How it was run: as §1

[7] = tested on: pigweed (Amaranthus retroflexus); assay: Test A pre-/postemergence plant response; conditions: Amaranthus retroflexus, 240 h, read-out: Plant response rating, Pigweed; for pest or weed control at 125 g/ha: 125 g ai/ha; for pest or weed control at 500 g/ha: 500 g ai/ha, approx. ten days
How it was run: as §1

[8] = tested on: cocklebur (Xanthium strumarium); assay: Test B pre-/postemergence plant response; conditions: for pest or weed control at 31 g/ha: 31 g ai/ha; for pest or weed control at 125 g/ha: 125 g ai/ha
How it was run: (§2)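 Visually scored on a 0 to 100 scale after 13 to 15 days in greenhouse versus controls. Treatments were preemergence on seeded loam/sand soil and postemergence on 1- to 4-leaf plants.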

[9] = tested on: green foxtail (Setaria viridis); assay: Test B pre-/postemergence plant response; conditions: for pest or weed control at 31 g/ha: 31 g ai/ha; for pest or weed control at 125 g/ha: 125 g ai/ha
How it was run: as §2

[10] = tested on: giant foxtail (Setaria faberii); assay: Test B pre-/postemergence plant response; conditions: for pest or weed control at 31 g/ha: 31 g ai/ha; for pest or weed control at 125 g/ha: 125 g ai/ha
How it was run: as §2

[11] = post-emergence, Postemergence, 0 to 100 scale where 0 is no effect and 100 is complete control
[12] = post-emergence, Postemergence, 0 to 100 scale, 0 = no effect, 100 = complete control
[13] = pre-emergence, Preemergence, 0 to 100 scale, 0 = no effect, 100 = complete control
[14] = pre-emergence, Preemergence, visual injury, 0 to 100 scale (0 no effect, 100 complete control)
[15] = 62 g ai/ha, postemergence, 0 is no effect, 100 is complete control, 13 to 15 days
[16] = Preemergence, 250 g ai/ha, 0 to 100 scale

In the case of `COCCCn1c(-c2ccccc2)ncc(C(=O)C2=C(O)CCCC2=O)c1=O` [Compound 81, 5-[(2-hydroxy-6-oxo-cyclohexen-1-yl)carbonyl]-3-(3-methoxypropyl)-2-phenyl-4(3H)-pyrimidinone], the pest or weed control at 125 g/ha [1, 11] is reported as 100%, the pest or weed control at 500 g/ha [1, 12] is reported as 100% and the pest or weed control at 125 g/ha [1, 13] is reported as 50%. For the same compound, the pest or weed control at 500 g/ha [1, 14] was 90%, the pest or weed control at 125 g/ha [2, 11] was 100% and the pest or weed control at 500 g/ha [2, 12] was 100%. For the same compound, the pest or weed control at 125 g/ha [2, 13] was 100%, the pest or weed control at 500 g/ha [2, 14] was 100% and the pest or weed control at 125 g/ha [3, 11] was 80%. The pest or weed control at 500 g/ha [3, 12] was 90%, the pest or weed control at 125 g/ha [3, 13] was 30% and the pest or weed control at 500 g/ha [3, 14] was 80%. For the same compound, the pest or weed control at 125 g/ha [4, 11] was 90%, the pest or weed control at 500 g/ha [4, 12] was 90% and the pest or weed control at 125 g/ha [4, 13] was 90%. It also gave a pest or weed control at 500 g/ha [4, 14] of 100%, a plant injury at 125 g/ha [5, 11] of 0% and a plant injury at 500 g/ha [5, 12] of 30%. The plant injury at 125 g/ha [5, 13] was 0%, the plant injury at 500 g/ha [5, 14] was 20% and the Corn plant response rating (crop injury, 0 = no effect, 100 = complete kill) at 125 g/ha (corn (Zea mays); [11]) was 10%. The Corn plant response rating (crop injury, 0 = no effect, 100 = complete kill) at 500 g/ha (corn (Zea mays); [12]) was 70%, the Corn plant response rating (crop injury, 0 = no effect, 100 = complete kill) at 125 g/ha (corn (Zea mays); [13]) was 0% and the Corn plant response rating (crop injury, 0 = no effect, 100 = complete kill) at 500 g/ha (corn (Zea mays); [14]) was 0%. The pest or weed control at 125 g/ha [6, 11] was 90%, the pest or weed control at 500 g/ha [6, 12] was 100% and the pest or weed control at 125 g/ha [6, 13] was 0%. For the same compound, the pest or weed control at 500 g/ha [6, 14] was 70%, the pest or weed control at 125 g/ha [7, 11] was 100% and the pest or weed control at 500 g/ha [7, 12] was 100%. The pest or weed control at 125 g/ha [7, 13] was 100%, the pest or weed control at 500 g/ha [7, 14] was 100% and the “Cocklebur plant response rating (0 to 100 scale)” value [8, 15] was 55. For the same compound, the “Cocklebur plant response rating” value [8, 16] was 85, the pest or weed control at 31 g/ha ([8]; Xanthium strumarium, post-emergence, postemergence, scale 0 to 100, 0 is no effect, 100 is complete control, read-out: Plant response rating, Cocklebur) was 5% and the pest or weed control at 125 g/ha ([8]; Xanthium strumarium, post-emergence, Postemergence, visual rating after 13 to 15 days, scale 0 (no effect) to 100 (complete control)) was 65%. It also gave a pest or weed control at 250 g/ha ([8]; Xanthium strumarium, post-emergence, Postemergence, 250 g ai/ha, scale 0 to 100 (0 no effect, 100 complete control), read-out: Plant response rating, Cocklebur) of 90%, a pest or weed control at 31 g/ha ([8]; Xanthium strumarium, pre-emergence, Preemergence, scale 0 to 100 (0 no effect, 100 complete control), read-out: Plant response rating, Cocklebur) of 0% and a pest or weed control at 62 g/ha ([8]; Xanthium strumarium, pre-emergence, Preemergence, 62 g ai/ha, scale 0 to 100, 0 no effect, 100 complete control, read-out: Plant response rating, Cocklebur) of 10%. For the same compound, the pest or weed control at 125 g/ha ([8]; Xanthium strumarium, pre-emergence, Preemergence, scale 0 to 100, 0 no effect, 100 complete control, read-out: Plant response rating, Cocklebur) was 75%, the “Foxtail, Green plant response rating (0 to 100 scale)” value [9, 15] was 85 and the “Foxtail, Green plant response rating” value [9, 16] was 100. For the same compound, the pest or weed control at 31 g/ha ([9]; Setaria viridis, post-emergence, postemergence, scale 0 to 100, 0 is no effect, 100 is complete control, read-out: Plant response rating, Foxtail, Green) was 5%, the pest or weed control at 125 g/ha ([9]; Setaria viridis, post-emergence, Postemergence, visual rating after 13 to 15 days, scale 0 (no effect) to 100 (complete control)) was 95% and the pest or weed control at 250 g/ha ([9]; Setaria viridis, post-emergence, Postemergence, 250 g ai/ha, scale 0 to 100 (0 no effect, 100 complete control), read-out: Plant response rating, Foxtail, Green) was 95%. For the same compound, the pest or weed control at 31 g/ha ([9]; Setaria viridis, pre-emergence, Preemergence, scale 0 to 100 (0 no effect, 100 complete control), read-out: Plant response rating, Foxtail, Green) was 80%, the pest or weed control at 62 g/ha ([9]; Setaria viridis, pre-emergence, Preemergence, 62 g ai/ha, scale 0 to 100, 0 no effect, 100 complete control, read-out: Plant response rating, Foxtail, Green) was 90% and the pest or weed control at 125 g/ha ([9]; Setaria viridis, pre-emergence, Preemergence, scale 0 to 100, 0 no effect, 100 complete control, read-out: Plant response rating, Foxtail, Green) was 100%. The “Foxtail, Giant plant response rating (0 to 100 scale)” value [10, 15] was 85, the “Foxtail, Giant plant response rating” value [10, 16] was 98 and the pest or weed control at 31 g/ha ([10]; Setaria faberi, post-emergence, postemergence, scale 0 to 100, 0 is no effect, 100 is complete control, read-out: Plant response rating, Foxtail, Giant) was 75%. The pest or weed control at 125 g/ha ([10]; Setaria faberi, post-emergence, Postemergence, visual rating after 13 to 15 days, scale 0 (no effect) to 100 (complete control)) was 95%, the pest or weed control at 250 g/ha ([10]; Setaria faberi, post-emergence, Postemergence, 250 g ai/ha, scale 0 to 100 (0 no effect, 100 complete control), read-out: Plant response rating, Foxtail, Giant) was 98% and the pest or weed control at 31 g/ha ([10]; Setaria faberi, pre-emergence, Preemergence, scale 0 to 100 (0 no effect, 100 complete control), read-out: Plant response rating, Foxtail, Giant) was 60%. The pest or weed control at 62 g/ha ([10]; Setaria faberi, pre-emergence, Preemergence, 62 g ai/ha, scale 0 to 100, 0 no effect, 100 complete control, read-out: Plant response rating, Foxtail, Giant) was 75% and the pest or weed control at 125 g/ha ([10]; Setaria faberi, pre-emergence, Preemergence, scale 0 to 100, 0 no effect, 100 complete control, read-out: Plant response rating, Foxtail, Giant) was 85%.
